Series [1] in a line: Clearance in human liver microsomes at 1 uM in presence of NADPH by ESI/LC-MS/MS analysis. Type of series: ADME, Microsome. As to conditions: read-out: CLH. (In general: Microsomes from liver hold many membrane-bound enzymes, among them those of drug oxidation.)
Series [2] is described as follows: Clearance in monkey liver microsomes at 1 uM in presence of NADPH by ESI/LC-MS/MS analysis. Type of series: ADME, Macaca mulatta, Microsome. To be noted: rhesus monkey, read-out: CLH.
Series [3] has as its target Serine/threonine-protein kinase SMG1 (Homo sapiens) (UniProt Q96Q15). Briefly: Inhibition of SMG1 in human Jurkat cell lysates at 0.03 to 0.3 uM in presence of biotinylated ADP by KiNativ profiling based mass spectrometry. Type of series: subcellular. To be noted: dose 0.03-0.3 µM.
A short description of series [4]: Toxicity in BALB/c mouse assessed as early stage erythroblasts in bone marrow at 10 mg/kg, po qd for 3 days and 4 days off intermittent dosing for 4 cycles by flow cytometry. Type of series: organism-based. To be noted: in vivo, 672 h, time 28 day.
Series [5] in a line: Toxicity in BALB/c mouse assessed as decrease in proportion of reticulocytes in bone marrow at 10 mg/kg, po qd for 3 days. Format: organism-based. As to conditions: in vivo, 72 h, time 3 day.
Series [6] in a line: Toxicity in BALB/c mouse assessed as mature red blood cells at 10 mg/kg, po qd for 3 days. Format: organism-based. As to conditions: in vivo, 72 h, time 3 day.

The structures appear in SMILES notation. Calls of active or inactive are those of the source. The rule behind the calls is not given here.

Chain of Serine/threonine-protein kinase SMG1 (Homo sapiens) (Q96Q15 whole entry): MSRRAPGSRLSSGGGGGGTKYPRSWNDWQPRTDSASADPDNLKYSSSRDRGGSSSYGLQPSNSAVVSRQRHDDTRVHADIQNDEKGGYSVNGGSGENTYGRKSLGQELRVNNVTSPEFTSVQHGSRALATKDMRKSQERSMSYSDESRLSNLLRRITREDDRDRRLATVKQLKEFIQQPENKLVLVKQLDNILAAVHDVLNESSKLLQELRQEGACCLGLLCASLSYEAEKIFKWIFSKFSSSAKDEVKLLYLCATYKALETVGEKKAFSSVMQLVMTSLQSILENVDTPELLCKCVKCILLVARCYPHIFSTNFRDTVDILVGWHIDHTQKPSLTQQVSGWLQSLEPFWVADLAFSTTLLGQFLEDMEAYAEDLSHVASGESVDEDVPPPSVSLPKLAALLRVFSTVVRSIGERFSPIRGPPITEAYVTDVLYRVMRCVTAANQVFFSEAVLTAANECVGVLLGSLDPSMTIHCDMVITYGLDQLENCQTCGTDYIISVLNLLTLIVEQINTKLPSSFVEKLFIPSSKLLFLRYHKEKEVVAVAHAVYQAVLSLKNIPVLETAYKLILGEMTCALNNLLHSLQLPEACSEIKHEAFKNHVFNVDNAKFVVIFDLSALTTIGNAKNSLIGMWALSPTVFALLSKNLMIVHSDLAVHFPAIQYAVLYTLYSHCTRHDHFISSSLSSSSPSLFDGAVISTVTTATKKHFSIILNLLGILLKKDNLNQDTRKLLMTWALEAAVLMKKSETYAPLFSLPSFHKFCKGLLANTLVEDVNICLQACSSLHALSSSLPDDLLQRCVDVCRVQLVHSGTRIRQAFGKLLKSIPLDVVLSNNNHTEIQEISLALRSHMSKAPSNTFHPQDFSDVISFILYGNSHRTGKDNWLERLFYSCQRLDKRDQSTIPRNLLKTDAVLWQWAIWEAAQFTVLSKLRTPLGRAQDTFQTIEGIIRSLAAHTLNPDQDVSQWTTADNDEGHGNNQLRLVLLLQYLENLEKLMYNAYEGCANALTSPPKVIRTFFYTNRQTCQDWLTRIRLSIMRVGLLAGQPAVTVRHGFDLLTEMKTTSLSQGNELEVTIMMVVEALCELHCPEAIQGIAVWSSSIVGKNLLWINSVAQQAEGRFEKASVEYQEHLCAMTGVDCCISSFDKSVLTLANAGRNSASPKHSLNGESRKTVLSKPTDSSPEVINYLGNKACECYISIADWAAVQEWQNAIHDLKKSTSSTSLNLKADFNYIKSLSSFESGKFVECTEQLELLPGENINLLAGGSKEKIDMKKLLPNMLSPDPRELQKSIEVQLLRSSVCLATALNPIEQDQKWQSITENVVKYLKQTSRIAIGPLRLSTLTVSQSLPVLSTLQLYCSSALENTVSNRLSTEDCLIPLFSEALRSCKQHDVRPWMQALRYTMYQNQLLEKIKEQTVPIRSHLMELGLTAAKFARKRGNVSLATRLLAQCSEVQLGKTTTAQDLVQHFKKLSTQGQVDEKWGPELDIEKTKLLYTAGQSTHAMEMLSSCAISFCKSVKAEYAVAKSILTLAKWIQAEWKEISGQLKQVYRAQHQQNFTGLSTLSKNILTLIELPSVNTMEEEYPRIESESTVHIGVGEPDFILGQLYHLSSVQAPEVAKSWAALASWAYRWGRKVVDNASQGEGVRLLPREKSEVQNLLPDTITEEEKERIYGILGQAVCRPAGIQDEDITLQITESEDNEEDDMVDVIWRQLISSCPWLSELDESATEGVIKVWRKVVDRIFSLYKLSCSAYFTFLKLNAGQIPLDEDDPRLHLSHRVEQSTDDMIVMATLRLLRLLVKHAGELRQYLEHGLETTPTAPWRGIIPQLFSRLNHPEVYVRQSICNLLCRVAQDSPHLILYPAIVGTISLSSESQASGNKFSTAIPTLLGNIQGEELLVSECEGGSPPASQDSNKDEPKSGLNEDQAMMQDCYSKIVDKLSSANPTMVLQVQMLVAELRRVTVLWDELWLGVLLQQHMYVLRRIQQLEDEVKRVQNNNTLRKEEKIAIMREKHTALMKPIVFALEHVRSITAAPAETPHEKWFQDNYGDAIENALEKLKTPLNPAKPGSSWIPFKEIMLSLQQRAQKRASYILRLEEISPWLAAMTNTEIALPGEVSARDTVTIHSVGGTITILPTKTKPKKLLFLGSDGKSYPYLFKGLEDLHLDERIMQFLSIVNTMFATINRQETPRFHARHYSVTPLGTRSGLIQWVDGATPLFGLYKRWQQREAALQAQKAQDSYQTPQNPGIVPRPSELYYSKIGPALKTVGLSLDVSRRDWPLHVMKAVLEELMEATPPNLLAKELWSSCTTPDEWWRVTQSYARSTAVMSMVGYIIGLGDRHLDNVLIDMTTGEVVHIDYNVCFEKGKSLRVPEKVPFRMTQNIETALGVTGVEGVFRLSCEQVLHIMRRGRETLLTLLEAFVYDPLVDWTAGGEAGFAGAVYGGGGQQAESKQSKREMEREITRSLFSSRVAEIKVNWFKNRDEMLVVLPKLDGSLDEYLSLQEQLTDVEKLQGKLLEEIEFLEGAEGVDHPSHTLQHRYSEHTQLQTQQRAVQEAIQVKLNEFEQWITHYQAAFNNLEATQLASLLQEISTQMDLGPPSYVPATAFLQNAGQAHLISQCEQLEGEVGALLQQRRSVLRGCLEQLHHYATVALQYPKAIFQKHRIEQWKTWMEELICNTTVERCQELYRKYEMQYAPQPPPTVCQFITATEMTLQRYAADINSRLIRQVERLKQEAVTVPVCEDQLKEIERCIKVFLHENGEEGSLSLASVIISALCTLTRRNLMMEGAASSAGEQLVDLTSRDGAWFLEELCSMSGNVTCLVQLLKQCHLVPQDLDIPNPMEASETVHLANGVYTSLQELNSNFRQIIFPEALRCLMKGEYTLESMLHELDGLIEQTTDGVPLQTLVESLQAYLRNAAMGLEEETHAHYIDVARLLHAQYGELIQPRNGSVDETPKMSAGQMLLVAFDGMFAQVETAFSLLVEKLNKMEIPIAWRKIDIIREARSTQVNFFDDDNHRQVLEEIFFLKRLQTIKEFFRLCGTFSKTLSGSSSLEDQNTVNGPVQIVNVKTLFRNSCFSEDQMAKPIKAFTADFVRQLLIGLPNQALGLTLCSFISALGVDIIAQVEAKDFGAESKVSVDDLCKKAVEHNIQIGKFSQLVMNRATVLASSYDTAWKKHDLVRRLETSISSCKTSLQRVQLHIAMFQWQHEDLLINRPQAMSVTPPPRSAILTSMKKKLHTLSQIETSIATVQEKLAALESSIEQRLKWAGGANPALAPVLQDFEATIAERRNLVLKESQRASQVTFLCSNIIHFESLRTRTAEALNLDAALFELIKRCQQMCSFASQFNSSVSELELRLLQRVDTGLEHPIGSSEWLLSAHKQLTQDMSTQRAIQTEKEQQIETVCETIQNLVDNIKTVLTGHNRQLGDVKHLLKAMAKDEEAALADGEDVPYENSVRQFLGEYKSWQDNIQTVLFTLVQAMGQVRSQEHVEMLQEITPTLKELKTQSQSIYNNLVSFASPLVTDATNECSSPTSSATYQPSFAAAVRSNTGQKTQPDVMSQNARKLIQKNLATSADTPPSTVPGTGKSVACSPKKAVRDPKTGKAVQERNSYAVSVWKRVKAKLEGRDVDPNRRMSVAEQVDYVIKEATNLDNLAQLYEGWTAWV

For `C[C@@H]1COCCN1c1cc([C@]2(O)C[C@H]3CC[C@@H](C2)O3)c2cnn(-c3cc[nH]n3)c2n1` [CAMONSERTIB], the microsomal CLint at 1 µM in series [1] was below 11.6 µL/min/mg; in series [2], 26 µL/min/mg. The inhibition entry in series [3] is “Active”. The Activity result in series [4] is “Non-Toxic”; in series [5] it was “Toxic”; in series [6], “Non-Toxic”.
